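Assay format: 96-well plates, 48-hour exposure. At the GI50, growth is halved.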 Activity calls are given as the source filed them. Rule as the data show it: active = GI50 up to about 1.1 µM and inactive = higher.
Experiments:
Assay in all cases: NCI anticancer screen, dose series, 48 h
K562 = test system: K562
SW-620 = test system: SW-620
OVCAR-8 = test system: OVCAR-8
BT-549 = test system: BT-549
RPMI-8226 = test system: RPMI-8226
SK-MEL-28 = test system: SK-MEL-28
NCI-H226 = test system: NCI-H226
HOP-62 = test system: HOP-62
MDA-MB-435 = test system: MDA-MB-435
NCI-H23 = test system: NCI-H23
A498 = test system: A498
ACHN = test system: ACHN
U-251 = test system: U-251
T47D = test system: T47D
HCT-116 = test system: HCT-116
MDA-MB-231 = test system: MDA-MB-231
SK-OV-3 = test system: SK-OV-3
EKVX = test system: EKVX
NCI-H522 = test system: NCI-H522

Measured: GI50

O=S(=O)(O)c1ccc(NN(c2c(O)ccc3ccccc23)S(=O)(=O)O)cc1
inactive: K562 > 100 µM | SW-620 > 100 µM | OVCAR-8 > 100 µM | BT-549 > 100 µM | RPMI-8226 > 100 µM | SK-MEL-28 > 100 µM | NCI-H226 > 100 µM | HOP-62 > 100 µM | MDA-MB-435 > 100 µM | NCI-H23 > 100 µM | A498 > 100 µM | ACHN > 100 µM | U-251 > 100 µM | T47D > 100 µM | HCT-116 > 100 µM | MDA-MB-231 > 100 µM | SK-OV-3 > 100 µM | EKVX > 100 µM | NCI-H522 > 100 µM

CN(C)CCNS(=O)(=O)c1ccc(N)cc1
inactive: K562 > 100 µM | SW-620 > 100 µM | OVCAR-8 > 100 µM | BT-549 > 100 µM | RPMI-8226 > 100 µM | SK-MEL-28 > 100 µM | NCI-H226 > 100 µM | HOP-62 18.5 µM | MDA-MB-435 > 100 µM | NCI-H23 > 100 µM | A498 > 100 µM | ACHN > 100 µM | U-251 > 100 µM | T47D > 100 µM | HCT-116 > 100 µM | MDA-MB-231 > 100 µM | SK-OV-3 > 100 µM | EKVX > 100 µM | NCI-H522 > 100 µM

CC(C)c1ccc(C(c2c(O)oc3ccccc3c2=O)c2c(O)oc3ccccc3c2=O)cc1
inactive: K562 18.2 µM | SW-620 17.1 µM | OVCAR-8 19.1 µM | BT-549 18.1 µM | RPMI-8226 17.7 µM | SK-MEL-28 18.9 µM | NCI-H226 20.6 µM | HOP-62 21.4 µM | MDA-MB-435 20.4 µM | NCI-H23 23.9 µM | A498 17.7 µM | ACHN 26.2 µM | U-251 15.1 µM | T47D 31.2 µM | HCT-116 17 µM | MDA-MB-231 21.4 µM | SK-OV-3 27 µM | EKVX 22.9 µM | NCI-H522 20 µM

C=C(C)C1CC2=C(C(=O)OC)C=C(O2)C(C(=C)C)[C@@H]2OC(=O)/C(=C\C1O)[C@H]2N(C)C (stereo partly specified)
inactive: K562 3.6 µM | SW-620 7.33 µM | OVCAR-8 10.9 µM | BT-549 9.75 µM | RPMI-8226 3.23 µM | SK-MEL-28 13.1 µM | NCI-H226 7.69 µM | HOP-62 19.4 µM | MDA-MB-435 9.44 µM | NCI-H23 13.1 µM | A498 17.1 µM | ACHN 11.7 µM | U-251 15.7 µM | T47D 11.7 µM | HCT-116 13.8 µM | MDA-MB-231 21.5 µM | SK-OV-3 24.9 µM | EKVX 11.7 µM | NCI-H522 2.91 µM

Source: ChEMBL document CHEMBL1201862, “PubChem BioAssay data set” (2004)
